Among the data in patent US6740663B2, “Mono- and di-fluorinated benzothiepine compounds as inhibitors of apical sodium co-dependent bile acid transport (ASBT) and taurocholate uptake” (G.D. Searle, LLC, priority 2001, dated 2004) are melting point values, retold here.

`CCCCC1(CCCC)CS(=O)(=O)c2ccc(N(C)C)cc2[C@@H](c2cccc(NC(=O)OCCC[N+]34CCN(CC3)CC4)c2)[C@H]1O.[Cl-]`: the melting point – broadly, the temperature, or range, at which the solid turns liquid – was in the range of 218 to 225 °C. As for `CCCCC1(CCCC)CS(=O)(=O)c2ccc(N(C)C)cc2[C@@H](c2cccc(NC(=O)Nc3cccc(C[N+]45CCN(CC4)CC5)c3)c2)[C@H]1O.[Cl-]`, the melting point fell in the range of 246 to 248 °C. For `CCCC[C@]1(CC)CS(=O)(=O)c2ccc(N3CCCC3)cc2[C@@H](c2ccc(F)cc2)[C@H]1O` [Compound 82, (3α,4β,5β)3-Butyl-3-ethyl-5-(4′-fluoropheny)-4-hydroxy-7-(1-pyrrolidinyl)-2,3,4,5-tetrahydrobenzothiepine-1,1-dioxide] the value was 174.5 to 177 °C; for `CCCC[C@]1(CC)CS(=O)(=O)c2ccc(N3CCOCC3)cc2[C@@H](c2ccc(F)cc2)[C@H]1O` [Compound 83, (3α,4β,5β)3-Butyl-3-ethyl-5-(4′-fluorophenyl)-4-hydroxy-7-(1-morpholinyl)-2,3,4,5-tetrahydrobenzothiepine-1,1-dioxide], 176.5 to 187.5 °C. In the case of `CCCCC1(CCCC)CS(=O)(=O)c2ccc(N(C)C)cc2[C@@H](c2ccc(OCCCCS(N)(=O)=O)cc2)[C@H]1O` [Example 1405] it was 108 to 110 °C; in that of `CCCCC1(CCCC)CS(=O)(=O)c2ccc(N(C)C)cc2[C@@H](c2ccc(OCCCCCC(C(=O)O)C(=O)O)cc2)[C@H]1O` [Example 1413, (4S-cis)-[5-[4-[3,3-Dibutyl-7-(dimethylamino)-2,3,4,5-tetrahydro-4-hydroxy-1,1-dioxido-1-benzothiepin-5-yl]phenoxy]pentyl]propanedioic Acid], 118 °C. In the case of `CCCCC1(CCCC)CS(=O)(=O)c2ccc(N(C)C)cc2[C@@H](c2ccc(OCCCCC[N+](C)(C)CC[N+](C)(C)CC)cc2)[C@H]1O` [Example 1418, (4R-cis)-N-[5-[4-[3,3-Dibutyl-7-(dimethylamino)-2,3,4,5-tetrahydro-4-hydroxy-1,1-dioxido-1-benzothiepin-5-yl]phenoxy]pentyl]-N′-ethyl-N,N,N′,N′-tetramethyl-1,2-ethanediaminium Dichloride] it was 193 to 197 °C.

In turn, `CCCCC1(CCCC)CS(=O)(=O)c2ccc(N(C)C)cc2[C@@H](c2ccc(OCCCCCc3nn[nH]n3)cc2)[C@H]1O` [Example 1420, (4R-cis)-3,3-Dibutyl-7-(dimethylamino)-2,3,4,5-tetrahydro-5-[4-[[5-(1H-tetrazol-5-yl)pentyl]oxy]phenyl]-1-benzothiepin-4-ol 1,1-Dioxide] returned a melting point of 80 to 85 °C. In the case of `CCCCC1(CCCC)CS(=O)(=O)c2ccc(N(C)C)cc2[C@@H](c2ccc(OCCCCCOc3cc(C(=O)O)nc(C(=O)O)c3)cc2)[C@H]1O` [Example 1421, (4R-cis)-4-[[5-[4-[3,3-Dibutyl-7-(dimethylamino)-2,3,4,5-tetrahydro-4-hydroxy-1,1-dioxido-1-1benzothiepin-5-yl]phenoxy]pentyl]oxy]-2,6-pyridinecarboxylic Acid] it was 143 °C.

In turn, `CCCCC1(CCCC)CS(=O)(=O)c2ccc(N(C)C)cc2[C@@H](c2ccc(OCCCCCNC(=N)N)cc2)[C@H]1O` [Example 1422, (4R-cis)-[5-[4-[3,3-Dibutyl-7-(dimethylamino)-2,3,4,5-tetrahydro-4-hydroxy-1,1-dioxido-1-benzothiepin-5-yl]phenoxy]pentyl]guanidine] registered a melting point of 67 to 72.5 °C. For `CCCCC1(CCCC)CS(=O)(=O)c2ccc(N(C)C)cc2[C@@H](c2ccc(OCc3ccc(C(=O)O)cc3)cc2)[C@H]1O` [Example 1424, (4R-cis)-4-[[4-[3,3-Dibutyl-7-(dimethylamino)-2,3,4,5-tetrahydro-4-hydroxy-1,1-dioxido-1-benzothiepin-5-yl]phenoxy]methyl]benzoic Acid] the value was 156 to 159 °C; for `CCCCC1(CCCC)CS(=O)(=O)c2ccc(N(C)C)cc2[C@@H](c2ccc(OCc3cccc(CCC(=O)O)n3)cc2)[C@H]1O` [Example 1430, (4R-cis)-6-[[4-[3,3-Dibutyl-7-(dimethylamino)-2,3,4,5-tetrahydro-4-hydroxy-1,1-dioxido-1-benzothiepin-5-yl]phenoxy]methyl]-2-pyridinepropanoic Acid], 105 to 107 °C; for `CCCCC1(CCCC)CS(=O)(=O)c2ccc(N(C)C)cc2[C@@H](c2ccc(OCCOCCC(C(=O)O)C(=O)O)cc2)[C@H]1O` [Example 1432, (4S-cis)-[2-[2-[4-[3,3-Dibutyl-7-(dimethylamino)-2,3,4,5-tetrahydro-4-hydroxy-1,1-dioxido-1-benzothiepin-5-yl]phenoxy]ethoxy]ethyl]propanedioic Acid], 119.5 °C.
